Data set [1] deals with Candida tropicalis (5705). As to the kind of experiment: MIC for yeast and yeast-like strains. The format is cell-based. Particulars: 48 hours, 35° C., read-out: Minimal Inhibitory Concentration (MIC). Put shortly:
(§1)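 MIC values derive from microdilution testing at a final fungal density near 5.0×10^4 CFU/ml. The medium was Yeast Nitrogen Base supplemented with 0.15% asparagine and 1.0% glucose, buffered with 0.165 M MOPS.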

The test system of data set [2] is Torulopsis candida (D.S.). As to the kind of experiment: MIC for yeast and yeast-like strains. Format: cell-based. To be noted: Suzukiozyma candida; 48 hours, 35° C.; read-out: Minimal Inhibitory Concentration (MIC). Put shortly: as §1
The test system of data set [3] is Candida albicans (562). As to the kind of experiment: MIC for yeast and yeast-like strains. Format: cell-based. To be noted: 48 hours, 35° C., read-out: Minimal Inhibitory Concentration (MIC). In outline:
as §1

Data set [4] deals with Candida albicans (A 54). The data set can be described thus: MIC for yeast and yeast-like strains. Format: cell-based. Particulars: 48 hours, 35° C., read-out: Minimal Inhibitory Concentration (MIC). Put shortly:
as §1

Data set [5] relates to Candida albicans (Ca 2). The data set can be described thus: MIC for yeast and yeast-like strains. To be noted: 48 hours, 35° C., read-out: Minimal Inhibitory Concentration (MIC). Format: cell-based. In outline:
as §1

Data set [6] relates to Cryptococcus neoformans (4711). As to the kind of experiment: MIC for yeast and yeast-like strains. The format is cell-based. To be noted: 48 hours, 35° C., read-out: Minimal Inhibitory Concentration (MIC). Put shortly: as §1
In data set [7] the test system is Candida krusei (ISS 1). As to the kind of experiment: MIC for yeast and yeast-like strains. Format: cell-based. To be noted: Pichia kudriavzevii; 48 hours, 35° C.; read-out: Minimal Inhibitory Concentration (MIC). In outline: as §1
For data set [8], the system named is Saccharomyces cerevisiae (ATCC 7752). As to the kind of experiment: MIC for yeast and yeast-like strains. The format is cell-based. Particulars: ATCC7752, 48 hours, 35° C., read-out: Minimal Inhibitory Concentration (MIC). In outline:
as §1

Data set [9] is described as follows: Assessment of behaviour and mortality in mice (Irwin's method). Details: species or system mice (male Crl:(CD-1)(ICR)BR). To be noted: mouse, in vivo; oral, dose 1000 (unit inferred), 4 animals/dose. The procedure: (§2) ASSESSMENT OF BEHAVIOUR AND MORTALITY IN MICE
(§3) The assessment of normal behaviour in mice was carried out following S. Irwin's method (Psychopharmacologia, 13, 222 [1968]). This method allows alterations in some behavioural, neurophysiologic and neurovegetative parameters to be detected, which are directly observable by the researcher. The study was conducted using male Crl:(CD-1)(ICR)BR mice (Charles River-Italy) weighing 22-25 g. following oral administration of the compounds suspended in carboxymethylcellulose (0.5% by weight in H2 O) to groups of 4 animals/dose.
(§4) The animals were continously kept under observation for five hours following treatment and twice a day in the subsequent five days. Mortality was also observed during the overall test period.

Data set [10] deals with mice. The description is as above. To be noted: mouse, in vivo, po. The arrangement: species or system mice (male Crl:(CD-1)(ICR)BR). Here is the method: as §2, §3, §4
Data set [11] deals with C. albicans PG. As to the kind of experiment: Systemic experimental infection with Candida albicans in mice. Format: in vivo, Candida albicans in mice (male CD1). To be noted: for % Mortality / Dead/Total: 60 days follow-up; for MST (mean survival time): range of variation in brackets, footnote p ≤ 0.05 (MannWithney "U" test), mark lost. The procedure: Male CD1 mice (C. River) aged 6 or 13 weeks were used (12-15 animals per group).
The pathogenic strain of Candida utilized, i.e. C. albicans PG, was able, when inoculated intravenously, to cause multiple renal lesions and systemic dissemination, provoking death of the animals within 40 days from the challenge.
A broth culture in Sabouraud broth is prepared from a 48-hour agar slant culture.
After incubation for 48 hours at 37° C., the broth culture is first washed 3 times with sterile saline, then adjusted to a concentration of 2.0×10^6 cells/ml. Volumes of 0.25 ml of this suspension are i.v. injected into the animals, with a resulting infective dose approximately corresponding to DL100.
ST 722 was administered per os following two different protocols:
I) 100 mg/kg administered at +2, +12, +24, +36 and +48 hours (i.e. 5 administrations in two days) with respect to the challenge.
II) 100 mg/kg administered twice daily on 6 consecutive days (i.e. 12 adimistrations) starting from day -2 to day +3 with respect to the day of inoculation (day 0).
After the challenge, the animals were followed up for 60 days, and the percent mortality as well as the mean survival time (MST) were evaluated. The statistical significance of the results was evaluated by means of Fisher "exact test" and Mann-Withney "U" test, respectively.

The subject of data set [12] is dermatophytic fungi. As to the kind of experiment: MIC / MFC for dermatophytic fungi, all strains. Particulars: versus susceptible strains. The format is cell-based, Trichophyton, Microsporum, Epidermophyton. Here is the method: The following strains were used: Trichophyton menthagrophytes ATCC 9533, Trichophyton rubrum IHEM 4274, Microsporum canis IHEM 3522, Epydermophyton floccosum IHEM 3495. The tested substances were: ST 722, ST 1033, ST 1037, ST 1050, ST 1051, ST 1052,. ST 1053.
The assay was performed following the same procedure described for the yeasts, by using 7-day fungi cultures grown at 30° C. in Potato Dextrose agar, and harvested with Sabouraud broth and Tween 80 (0.5%).
After washing with Yeast Nitrogen Base, supplemented with asparagine and glucose (as carbon source), the fungal suspension was fragmented using a tissue grinder until the largest clumps or aggregates were undetectable within the grinder. This fungal suspension was then appropriately diluted in YNB to yield a concentration of 2.0×10^5 infective particles/ml (small mycelium fragments, micro-and macroaleuriospores).
Volumes of 100 μl both of the fungal suspensions and substance solutions, two-fold serially diluted in assay medium, were distributed into each well of a microtiter plate (96 wells, round bottom), which was incubated at 35° C. for 96 hours.

[13] abbreviates: protocol I: 100 mg/kg per os at +2, +12, +24, +36, +48 hours.
[14] abbreviates: protocol II: 100 mg/kg per os twice daily, day -2 to day +3.

With `CCCCCCCCCCCOC(=O)C[C@H](C[N+](C)(C)C)OC(=O)CC(C)C` [ST 722, isovaleryl-L-carnitine undecyl ester chloride], the MIC in data set [1] came out at 3.12 µg/mL; in data set [2], 6.25 µg/mL; in data set [3], 3.12 µg/mL; in data set [4], 3.12 µg/mL; in data set [5], 1.56 µg/mL; in data set [6], 1.56 µg/mL. Besides, the MIC in data set [7] was determined as 3.12 µg/mL; in data set [8] it was 3.12 µg/mL; in data set [12] it was 28.1 µg/mL. The mortality (usually the share of the test organisms that died) at 120 h in data set [9] was 0%. Also, the Symptoms result in data set [10] was “salivation, diarrhoea”. Further, the “protective effect” value in data set [11] (protocol I and II, per os) is recorded as “only in terms of MST prolongation”. Besides, the “% Mortality” value in data set [11] (setting [13]) and in data set [11] (setting [14]) was 71.4% each time. Moreover, the Dead/Total in data set [11] (setting [13]) and in data set [11] (setting [14]) was 10/14 throughout. Also, the “MST (mean survival time)” value was 37 (25-≥60) days in data set [11] (protocol I) and 44 (32-≥60) days in data set [11] (protocol II). For the same compound, the “percent mortality” value in data set [11] (protocol II, per os) is recorded as “completely unaffected”.
